How the values were obtained:
[1] = biological target: T1, full-length human PKCι (Homo sapiens, UniProt P41743); test: PKCι IC50 IMAP assay, full-length PKCι at 150 μM ATP; type: biochemical; settings: read-out: IC50 in IMAP assay against full length PKCi at 150 μM ATP
T1 construct: Recombinant, full-length human PKCι expressed in Sf21 insect cells is also commercially available; purchased; host or cells: Sf21 insect cells
T1 sequence (P41743 1-596): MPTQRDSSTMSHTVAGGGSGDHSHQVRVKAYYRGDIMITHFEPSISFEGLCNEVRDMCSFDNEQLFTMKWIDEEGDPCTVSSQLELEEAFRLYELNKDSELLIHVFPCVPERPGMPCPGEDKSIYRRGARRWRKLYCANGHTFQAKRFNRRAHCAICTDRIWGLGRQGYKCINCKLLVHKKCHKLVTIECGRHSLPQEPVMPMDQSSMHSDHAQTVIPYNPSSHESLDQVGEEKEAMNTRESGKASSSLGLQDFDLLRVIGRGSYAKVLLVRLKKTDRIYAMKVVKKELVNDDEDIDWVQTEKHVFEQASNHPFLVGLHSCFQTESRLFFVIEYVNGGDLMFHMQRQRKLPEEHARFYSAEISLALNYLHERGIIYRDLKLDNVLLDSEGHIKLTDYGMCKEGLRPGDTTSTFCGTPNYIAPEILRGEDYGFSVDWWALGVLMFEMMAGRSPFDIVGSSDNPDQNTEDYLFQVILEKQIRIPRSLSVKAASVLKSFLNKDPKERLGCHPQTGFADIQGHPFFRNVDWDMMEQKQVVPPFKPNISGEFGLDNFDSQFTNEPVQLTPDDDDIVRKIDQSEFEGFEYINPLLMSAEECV
Outline: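 Full-length human PKCι from Sf21 cells, typically 15 pM, with 100 nM 5FAM-PKCε pseudosubstrate peptide and 150 μM ATP (5× apparent KM), 60 min at room temperature, 4% DMSO. IMAP fluorescence polarisation read-out; inhibition normalised to no-compound and no-enzyme controls, IC50 from curve fit.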

[2] = test system: NSCLC cells; settings: pharmacological inhibition of PKCι; literature (Regala et al.); cited from earlier work
[3] = test system: follicular lymphoma; settings: by targeting a PKCζ-MAPK-mTOR pathway; literature (Leseux et al.); cited from earlier work

Compound | melting point | IC50 [1] | growth of NSCLC cells in soft agar [2] | follicular lymphoma proliferation [3]
COc1cncc2nc(-c3ccnc(Nc4ccccc4)c3)nc(N3CC[C@H](O)[C@H](O)C3)c12 (racemic) [Example 436, (±)-cis-1-[5-Methoxy-2-(2-phenylamino-pyridin-4-yl)-pyrido[3,4-d]pyrimidin-4-yl]-piperidine-3,4-diol] | 241 to 243 °C | 100 to 1000 nM | – | –
COc1cncc2nc(-c3ccnc(Nc4ncccn4)c3)nc(N3CCNCC3)c12 [Example 423, [4-(5-Methoxy-4-piperazin-1-yl-pyrido[3,4-d]pyrimidin-2-yl)-pyridin-2-yl]-pyrimidin-2-yl-amine] | 200 to 203 °C | 100 to 1000 nM | – | –
COc1cncc2nc(-c3ccnc(Nc4ccccc4)c3)nc(N3CCCCC3)c12 [Example 459, [4-(5-Methoxy-4-piperidin-1-yl-pyrido[3,4-d]pyrimidin-2-yl)-pyridin-2-yl]-phenyl-amine] | 221 to 223 °C | 10000 to 40000 nM | – | –
COc1cncc2nc(-c3ccnc(Nc4ccccc4)c3)nc(N3CCC(C#N)CC3)c12 [Example 461, 1-[5-Methoxy-2-(2-phenylamino-pyridin-4-yl)-pyrido[3,4-d]pyrimidin-4-yl]-piperidine-4-carbonitrile] | 242 to 244 °C | 1000 to 10000 nM | – | –
COc1cncc2nc(-c3ccnc(Nc4ccccc4)c3)nc(N3CCC(F)CC3)c12 [Example 462, {4-[4-(4-Fluoro-piperidin-1-yl)-5-methoxy-pyrido[3,4-d]pyrimidin-2-yl]-pyridin-2-yl}-phenyl-amine] | 202 to 205 °C | 10000 to 40000 nM | – | –
COc1cncc2nc(-c3ccnc(Nc4ccccc4)c3)nc(N3CC[C@@H](CO)C3)c12 [Example 465, {(R)-1-[5-Methoxy-2-(2-phenylamino-pyridin-4-yl)-pyrido[3,4-d]pyrimidin-4-yl]-pyrrolidin-3-yl}-methanol] | 208 to 209 °C | 1000 to 10000 nM | – | –
COc1cncc2nc(-c3ccnc(Nc4ccccc4)c3)nc(N3CC[C@H](CO)C3)c12 [Example 466, {(S)-1-[5-Methoxy-2-(2-phenylamino-pyridin-4-yl)-pyrido[3,4-d]pyrimidin-4-yl]-pyrrolidin-3-yl}-methanol] | 210 to 211 °C | 1000 to 10000 nM | – | –
c1ccc(Nc2cc(-c3nc(N4CCNCC4)c4c(C5CC5)cncc4n3)ccn2)cc1 [Example 481, [4-(5-Cyclopropyl-4-piperazin-1-yl-pyrido[3,4-d]pyrimidin-2-yl)-pyridin-2-yl]-phenyl-amine] | 221 to 226 °C | – | – | –
O=C(O)CC([S-])C(=O)O.[Au+] (stereo not drawn) [aurothiomalate] | – | – | blocks the growth | –
Rituximab: "the anti-CD20 therapeutic antibody rituximab" | – | – | – | inhibits follicular lymphoma proliferation

The next lines start with results.

melting point | IC50 [1] | Compound | growth of NSCLC cells in soft agar [2] | follicular lymphoma proliferation [3]
206 to 208 °C | < 100 nM | COc1cncc2nc(-c3ccnc(Nc4ccc(Cl)nc4)c3)nc(N3CCNCC3)c12 [Example 405, (6-Chloro-pyridin-3-yl)-[4-(5-methoxy-4-piperazin-1-yl-pyrido[3,4-d]pyrimidin-2-yl)-pyridin-2-yl]-amine] | – | –
189 to 191 °C | < 100 nM | COc1cccc(Nc2cc(-c3nc(N4CCNCC4)c4c(OC)cncc4n3)ccn2)n1 [Example 448, [4-(5-Methoxy-4-piperazin-1-yl-pyrido[3,4-d]pyrimidin-2-yl)-pyridin-2-yl]-(6-methoxy-pyridin-2-yl)-amine] | – | –
200 to 203 °C | < 100 nM | N#Cc1ccc(CC(=O)Nc2cc(-c3nc(N4CCNCC4)c4c(C5CC5)cncc4n3)ccn2)cc1 [Example 473, 2-(4-Cyano-phenyl)-N-[4-(5-cyclopropyl-4-piperazin-1-yl-pyrido[3,4-d]pyrimidin-2-yl)-pyridin-2-yl]-acetamide] | – | –
214 to 220 °C | < 100 nM | Cc1cc(N2CCOCC2)ccc1Nc1cc(-c2nc(N3CCNCC3)c3c(C4CC4)cncc3n2)ccn1 [Example 474, [4-(5-Cyclopropyl-4-piperazin-1-yl-pyrido[3,4-d]pyrimidin-2-yl)-pyridin-2-yl]-(2-methyl-4-morpholin-4-yl-phenyl)-amine] | – | –
217 to 219 °C | < 100 nM | c1cc(-c2nc(N3CCNCC3)c3c(C4CC4)cncc3n2)cc(Nc2ccc(N3CCOCC3)nc2)n1 [Example 475, [4-(5-Cyclopropyl-4-piperazin-1-yl-pyrido[3,4-d]pyrimidin-2-yl)-pyridin-2-yl]-(6-morpholin-4-yl-pyridin-3-yl)-amine] | – | –
226 to 228 °C | < 100 nM | c1cncc(Nc2cc(-c3nc(N4CCNCC4)c4c(C5CC5)cncc4n3)ccn2)c1 [Example 476, [4-(5-Cyclopropyl-4-piperazin-1-yl-pyrido[3,4-d]pyrimidin-2-yl)-pyridin-2-yl]-pyridin-3-yl-amine] | – | –
– | < 100 nM | {4-[5-Cyclopropyl- 4-((R)-3- fluoromethyl- piperazin-1- yl)-pyrido[3,4-d]- pyrimidin-2-yl]- pyridin-2-yl}-(6- fluoro-pyridin-2- yl)-amine [Example 512] | – | –

Reference: US9914730B2, “Azaquinazoline inhibitors of Atypical protein Kinase C” (Ignyta, Inc., priority 2012, dated 2018)
